Reference: the supplement of paper PMC10307832

Assays:
Experiment in all cases: relative viability (nuclei count vs DMSO), 5 days (fraction); higher = more cells survive
[1] = compound: C[C@]12O[C@H](C[C@]1(O)CO)n1c3ccccc3c3c4c(c5c6ccccc6n2c5c31)CNC4=O [Lestaurtinib] + CC1(C)CCC(c2ccc(Cl)cc2)=C(CN2CCN(c3ccc(C(=O)NS(=O)(=O)c4ccc(N[C@H](CCN5CCOCC5)CSc5ccccc5)c(S(=O)(=O)C(F)(F)F)c4)cc3)CC2)C1 [Navitoclax] (partner 0.5 µM)
Summary of the method: (§1)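 Lung cancer cell lines, seeded in 1536-well plates, were treated the following day by pin tool with a single drug or with five library-drug doses (not always all listed) in √10 steps on top of a fixed anchor-drug dose. Cells were fixed and nuclei stained in one step after 5 days, and nuclei were counted. Relative viability is the nuclei count for treated wells divided by that for vehicle wells, reported as medians of duplicate plates.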

[2] = compound: C1/C(=C\C2=CC=CS2)/C(=O)/C(=C/C3=CC=CS3)/C1 + CC1(C)CCC(c2ccc(Cl)cc2)=C(CN2CCN(c3ccc(C(=O)NS(=O)(=O)c4ccc(N[C@H](CCN5CCOCC5)CSc5ccccc5)c(S(=O)(=O)C(F)(F)F)c4)cc3)CC2)C1 [Navitoclax] (partner 0.5 µM)
Summary of the method: as §1

Lestaurtinib + Alpelisib = compound: C[C@]12O[C@H](C[C@]1(O)CO)n1c3ccccc3c3c4c(c5c6ccccc6n2c5c31)CNC4=O [Lestaurtinib] + Cc1nc(NC(=O)N2CCC[C@H]2C(N)=O)sc1-c1ccnc(C(C)(C)C(F)(F)F)c1 [Alpelisib] (partner 2 µM)
Summary of the method: as §1

[3] = compound: C[C@]12O[C@H](C[C@]1(O)CO)n1c3ccccc3c3c4c(c5c6ccccc6n2c5c31)CNC4=O [Lestaurtinib] + Cc1cc(Nc2cc(N3CCN(C)CC3)nc(Sc3ccc(NC(=O)C4CC4)cc3)n2)n[nH]1 [Tozasertib] (partner 0.1 µM)
Summary of the method: as §1

Cell Line | relative viability ([1]; first compound 0.005 µM) | relative viability ([1]; first compound 0.01581 µM) | relative viability ([1]; first compound 0.05 µM) | relative viability ([1]; first compound 0.1581 µM) | relative viability ([1]; first compound 0.5 µM) | relative viability ([2]; first compound 0.2 µM) | relative viability ([2]; first compound 0.6325 µM) | relative viability ([2]; first compound 2 µM) | relative viability ([2]; first compound 6.325 µM) | relative viability ([2]; first compound 20 µM) | relative viability (Lestaurtinib + Alpelisib; first compound 0.005 µM) | relative viability (Lestaurtinib + Alpelisib; first compound 0.01581 µM) | relative viability (Lestaurtinib + Alpelisib; first compound 0.05 µM) | relative viability (Lestaurtinib + Alpelisib; first compound 0.1581 µM) | relative viability (Lestaurtinib + Alpelisib; first compound 0.5 µM) | relative viability ([3]; first compound 0.005 µM) | relative viability ([3]; first compound 0.01581 µM) | relative viability ([3]; first compound 0.05 µM) | relative viability ([3]; first compound 0.1581 µM) | relative viability ([3]; first compound 0.5 µM)
NCI-H1666 | 1.18 | 1.05 | 1.08 | 0.581 | 0.355 | 1.22 | 0.818 | 1.05 | 0.622 | 0.983 | 0.915 | 1.05 | 1.02 | 0.493 | 0.442 | 0.656 | 0.663 | 0.686 | 0.531 | 0.373
NCI-H1734 | 0.849 | 0.957 | 0.657 | 0.512 | 0.159 | 0.837 | 0.908 | 0.914 | 0.812 | 0.866 | 0.732 | 0.689 | 0.569 | 0.377 | 0.304 | 0.289 | 0.153 | 0.247 | 0.214 | 0.178
NCI-H1755 | 1.01 | 0.944 | 0.633 | 0.265 | 0.223 | 1.07 | 1.03 | 0.963 | 0.849 | 0.944 | 1 | 0.927 | 0.571 | 0.349 | 0.202 | 0.607 | 0.693 | 0.589 | 0.461 | 0.372
NCI-H1793 | 0.504 | 0.745 | 0.393 | 0.334 | 0.232 | 0.376 | 0.512 | 0.503 | 0.402 | 0.519 | 0.874 | 0.761 | 0.588 | 0.546 | 0.494 | 0.335 | 0.279 | 0.347 | 0.265 | 0.255
NCI-H1915 | 0.766 | 0.801 | 0.774 | 0.724 | 0.503 | 0.788 | 0.758 | 0.818 | 0.754 | 0.818 | 1.06 | 1.05 | 1.04 | 0.761 | 0.376 | 0.498 | 0.532 | 0.363 | 0.49 | 0.214
NCI-H1944 | 1.12 | 1.01 | 0.956 | 0.673 | 0.638 | 1.14 | 0.966 | 1.08 | 0.899 | 0.992 | 0.82 | 0.745 | 0.61 | 0.41 | 0.383 | 0.262 | 0.276 | 0.234 | 0.236 | 0.201
NCI-H1975 | 1.25 | 1.23 | 1.03 | 0.666 | 0.473 | 1.09 | 1.19 | 1.04 | 0.912 | 1.08 | 0.658 | 0.644 | 0.372 | 0.347 | 0.212 | 0.943 | 1.02 | 0.715 | 0.552 | 0.486
NCI-H1993 | 1.16 | 0.991 | 0.846 | 0.632 | 0.7 | 1.04 | 0.877 | 0.971 | 0.693 | 0.818 | 0.788 | 0.677 | 0.691 | 0.591 | 0.583 | 0.636 | 0.545 | 0.57 | 0.54 | 0.529
NCI-H2009 | 1.16 | 1.25 | 1.06 | 1.3 | 0.22 | 1.19 | 1.21 | 1.06 | 1.15 | 1.16 | 1.27 | 1.12 | 0.971 | 1.05 | 0.673 | 0.783 | 0.832 | 0.625 | 0.454 | 0.359
NCI-H2023 | 1.13 | 1.06 | 0.875 | 0.88 | 0.252 | 1.08 | 0.991 | 1.03 | 0.971 | 0.94 | 0.674 | 0.616 | 0.536 | 0.488 | 0.384 | 0.386 | 0.554 | 0.357 | 0.269 | 0.0989
NCI-H2085 | 1.15 | 1.36 | 1.1 | 1.27 | 0.979 | 1.13 | 1.16 | 1.03 | 1.15 | 1.09 | 1.05 | 1.11 | 1.06 | 1.01 | 0.843 | 0.828 | 0.83 | 0.75 | 0.882 | 0.56
NCI-H2087 | 0.946 | 0.853 | 0.686 | 0.707 | 0.26 | 1.13 | 1.04 | 0.933 | 0.669 | 1.05 | 1.15 | 1.08 | 0.83 | 0.783 | 0.325 | 0.321 | 0.378 | 0.208 | 0.265 | 0.212
NCI-H2126 | 0.924 | 0.914 | 0.854 | 0.632 | 0.75 | 0.941 | 0.79 | 0.832 | 0.628 | 0.845 | 0.785 | 0.746 | 0.608 | 0.681 | 0.478 | 0.919 | 0.963 | 0.802 | 0.699 | 0.48
NCI-H2170 | 0.378 | 0.393 | 0.368 | 0.442 | 0.263 | 0.655 | 0.565 | 0.678 | 0.516 | 0.547 | 0.698 | 0.707 | 0.592 | 0.699 | 0.404 | 0.72 | 0.848 | 0.696 | 0.45 | 0.219
NCI-H2228 | 0.985 | 1.29 | 0.839 | 0.554 | 0.162 | 0.823 | 1.3 | 0.904 | 0.73 | 1.05 | 0.806 | 0.648 | 0.582 | 0.32 | 0.205 | 0.178 | 0.23 | 0.257 | 0.219 | 0.163
